Data taken from article PMC7024345 (Molecules, 2020).
“And” between values parts separate entries of the source, which are not always exact repeats. Equal entries are not always repeated. Where two headings read alike, the source gives them in different places.

Columns and labels:
[1] = target: T1, eqBChE (BChE from equine serum) (Equus caballus, UniProt P81908); assay: biochemical
T1 construct: BChE from equine serum (eqBChE); purchased Sigma-Aldrich (St. Louis, MO, USA); host or cells: equine serum
Procedure: (§1) Acetylcholinesterase and butyrylcholinesterase inhibitory activities of the compounds under study were evaluated spectrophotometrically following Ellman’s method using AChE from electrophorus electricus (eeAChE) and BChE from equine serum (eqBChE). The lyophilized enzymes were dissolved in sodium phosphate buffer (0.25 M, pH 7.4) to make a stock solution of eeAChE (1000 U/mL) or eqBChE (25 U/mL). […] Briefly, in each well, 100 μL of phosphate buffer, 40 μL of DTNB, 20 μL of the tested compounds (100 µM solution dissolved in 0.1% DMSO and phosphate buffer) and 20 μL of cholinesterase solution were pre-incubated in a 96-well microplate for 5 min at 30 °C. […] The rate of the reaction before adding the enzyme was subtracted from that obtained after enzyme addition in order to correct for spontaneous hydrolysis of substrate.

[2] = target: T2, eeAChE (AChE from electrophorus electricus) (Electrophorus electricus, UniProt O42275); assay: biochemical; assay type: biochemical; details: for IC50: Ellman's method, ATCI substrate, 30 °C; for fold enhancement of eeAChE inhibitory activity: 10 carbon linker compound compared to 6 carbon linker analogue (compounds 3 and 4)
T2 construct: purchased Sigma-Aldrich (St. Louis, MO, USA)
Procedure: as §1

[3] = Chemical stability observation; assay type: physicochemical
From the text: Accordingly, these two compounds were selected for the study as protective agents against glutamate, iron(III) and Aβ42.

[4] = test system: differentiated SH-SY5Y cells; assay: Neuroprotection against iron(III), MTT reduction; assay type: cell-based, human; details: mean ± SD; for MTT reduction: 30 min pre-treatment, then iron(III) 1 mM 24 h; for MTT reduction, aggressor alone: iron(III) 1 mM, 24 h
Procedure: (§2) After 30 min of pre-treatment with Compounds 7 (10 and 50 µM) and 11 (10 µM), the cells were exposed to different aggressors, described above, for 24 h.
(§3) Figure 6 Evaluation of the protective effects of Compounds 7 (10 and 50 µM) and 11 (10 µM) in SH-SY5Y cells against glutamate (16 mM, A), iron(III) (1 mM, B) and Aβ42 (25 µM, C) as oxidative stress inducers. The cells were pre-treated with antioxidants for 30 min and exposed to the aggressors for 24 h. The data are expressed as the means of three independent experiments together with the standard deviation (Mean ± SD). Statistical comparisons were estimated using the nonparametric method of Kruskal–Wallis [one-way ANOVA on ranks] followed by Dunn’s post hoc test (A,B) and using the parametric method of one-way analysis of variance (ANOVA) followed by Dunnett’s multiple comparison test (C, F = 364.2) (Supplementary Table S2). In all cases, p values lower than 0.05 were considered significant (^## p < 0.05, ^#### p < 0.0001 vs. control data; ** p < 0.01, *** p < 0.001, **** p < 0.0001 vs. aggressor values).
(§4) Differentiated human neuroblastoma cells were routinely cultured into […] flasks and maintained in DMEM high glucose (4.5 g/L glucose), supplemented with 10% heat-inactivated FBS (v/v), 1% NEAA (v/v) and 1% penicillin/streptomycin (v/v). The cell cultures were maintained at 37 °C in a humidified 5% CO2–95% air atmosphere and passaged once a week by trypsinization (0.25% trypsin). Neuroblastoma SH-SY5Y cells were seeded onto 96 well plates at a density of 25,000 cells/cm^2 in cell culture medium with trans-retinoic acid (RA, final concentration of 10 µM) and incubated for three days at 37 °C in a humidified, 5% CO2–95% air atmosphere. Then, the medium was supplemented with 12-O-tetradecanoylphorbol-13-acetate (TPA, final concentration of 80 nM), and cells were incubated for three days. Stock solutions of RA (10 mM) and TPA (160 µM) were prepared in DMSO. To avoid phenotypic changes, the cells used for all experiments were taken between the 19th and 28th passages.
(§5) The neuroprotective efficacy of mitochondriotropic antioxidants 7 and 11 was evaluated in a cell-based assay against diverse oxidative stress inducers. Briefly, SH-SY5Y cells were pre-treated with Compounds 7 and 11 followed by incubation with the well-described aggressors that play a role in AD progression, namely Aβ-amyloid 1-42 (Aβ42), ferric nitrilotriacetate (FeNTA) and glutamic acid. Differentiated SH-SY5Y cells were pre-treated with the test compounds 7 (10 and 50 µM) and 11 (10 µM) for 30 min. Then, a culture medium containing Aβ42 (25 µM), iron(III) (1 mM) or glutamic acid (16 mM) was added, and cells were incubated for additional 24 h. A negative control (cells treated with culture medium containing DMSO 0.1%) and a positive control (cells treated with culture medium containing DMSO 0.1%, followed by treatment with aggressors) were also included. Cell viability was estimated using the MTT reduction assay, as described by Fernandes et al..

[5] = test system: differentiated SH-SY5Y cells; assay: Neuroprotection against Aβ42, MTT reduction; assay type: cell-based, human; details: mean ± SD; for MTT reduction: 30 min pre-treatment, then Aβ42 25 µM 24 h; for MTT reduction, aggressor alone: Aβ42 25 µM, 24 h
Procedure: as §2, §3, §4, §5

[6] = test system: differentiated SH-SY5Y cells; assay: Neuroprotection against glutamate, MTT reduction; assay type: cell-based, human; details: mean ± SD; for MTT reduction: 30 min pre-treatment, then glutamate 16 mM 24 h; for MTT reduction, aggressor alone: glutamate 16 mM, 24 h
Procedure: as §2, §3, §4, §5

[7] = test system: SH-SY5Y cells; parameters: method as in PMID 30784884; details: at 50 µM; cited from earlier work
[8] = Ellman's method, BTCI substrate, 30 °C, read-out: IC50 eqBChE, mean (CI 95%)
[9] = read-out: IC50 eeAChE, mean (CI 95%)

T1 sequence (P81908 whole entry): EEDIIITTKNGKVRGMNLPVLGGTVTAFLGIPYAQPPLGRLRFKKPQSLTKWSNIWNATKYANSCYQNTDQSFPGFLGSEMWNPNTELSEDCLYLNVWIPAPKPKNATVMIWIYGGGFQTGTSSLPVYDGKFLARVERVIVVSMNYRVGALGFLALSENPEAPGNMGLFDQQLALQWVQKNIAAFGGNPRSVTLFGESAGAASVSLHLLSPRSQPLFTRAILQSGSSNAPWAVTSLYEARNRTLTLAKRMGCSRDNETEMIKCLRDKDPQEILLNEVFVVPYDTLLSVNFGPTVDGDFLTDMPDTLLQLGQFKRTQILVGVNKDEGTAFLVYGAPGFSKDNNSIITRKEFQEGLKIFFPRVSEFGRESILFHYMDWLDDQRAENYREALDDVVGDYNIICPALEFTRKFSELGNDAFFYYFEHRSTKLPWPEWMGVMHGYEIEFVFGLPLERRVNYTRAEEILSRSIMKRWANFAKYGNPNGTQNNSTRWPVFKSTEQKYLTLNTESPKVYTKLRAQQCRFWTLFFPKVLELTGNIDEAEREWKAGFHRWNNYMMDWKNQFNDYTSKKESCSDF
T2 sequence (O42275 24-633): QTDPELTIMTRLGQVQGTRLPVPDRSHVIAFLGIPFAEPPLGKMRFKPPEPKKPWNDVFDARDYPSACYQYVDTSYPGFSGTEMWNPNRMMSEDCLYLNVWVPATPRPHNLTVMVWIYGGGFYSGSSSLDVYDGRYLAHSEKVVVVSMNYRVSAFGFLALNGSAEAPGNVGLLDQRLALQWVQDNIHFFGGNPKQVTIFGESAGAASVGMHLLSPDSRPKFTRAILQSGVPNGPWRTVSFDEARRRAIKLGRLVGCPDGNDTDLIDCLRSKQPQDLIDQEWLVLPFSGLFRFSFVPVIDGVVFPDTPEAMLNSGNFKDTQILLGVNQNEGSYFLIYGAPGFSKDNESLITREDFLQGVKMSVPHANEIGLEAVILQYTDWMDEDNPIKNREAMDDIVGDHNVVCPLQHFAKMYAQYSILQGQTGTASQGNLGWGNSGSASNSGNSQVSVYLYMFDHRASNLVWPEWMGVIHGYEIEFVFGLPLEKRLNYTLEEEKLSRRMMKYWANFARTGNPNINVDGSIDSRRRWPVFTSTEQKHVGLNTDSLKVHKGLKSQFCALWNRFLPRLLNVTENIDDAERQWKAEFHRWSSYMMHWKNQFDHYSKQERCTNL

Row | Molecule | SI: selectivity index = IC50 (eeAChE)/IC50 (eqBChE) [1] | IC50 [1, 8] | IC50 [2, 9] | IC50 [1] | IC50 ([2]; IC50 eeAChE, mean (CI 95%)) | also measured
1 | O=C(/C=C/c1cc(O)c(O)c(O)c1)NCCCCCC[P+](c1ccccc1)(c1ccccc1)c1ccccc1 [Compound 1] | 7.2 | 410 nM | 2940 nM | – | – | –
2 | O=C(CCc1cc(O)c(O)c(O)c1)NCCCCCC[P+](c1ccccc1)(c1ccccc1)c1ccccc1 [Compound 2] | 2.1 | – | – | 3160 nM | 6760 nM | –
3 | O=C(Cc1cc(O)c(O)c(O)c1)NCCCCCC[P+](c1ccccc1)(c1ccccc1)c1ccccc1 [Compound 3] | 2.0 | – | – | 4520 nM | 8980 nM | –
4 | O=C(/C=C/c1ccc(O)c(O)c1)NCCCCCC[P+](c1ccccc1)(c1ccccc1)c1ccccc1 [Compound 4] | 52.7 | 120 nM | 6320 nM | – | – | –
5 | O=C(CCc1ccc(O)c(O)c1)NCCCCCC[P+](c1ccccc1)(c1ccccc1)c1ccccc1 [Compound 5] | 0.4 | – | – | 2520 nM | 1080 nM | chemical stability [3]: showed chemical instability
6 | O=C(Cc1ccc(O)c(O)c1)NCCCCCC[P+](c1ccccc1)(c1ccccc1)c1ccccc1 [Compound 6] | 4.2 | – | – | 930 nM | 3880 nM | –
7 | O=C(/C=C/c1cc(O)c(O)c(O)c1)NCCCCCCCCCC[P+](c1ccccc1)(c1ccccc1)c1ccccc1 [Compound 7] | 30.8 | 110 nM | 3390 nM | – | – | MTT reduction ([4]; compound 10 µM): 75.90 ± 5.25 % ctrl; MTT reduction ([4]; compound 50 µM): 80.22 ± 12.76 % ctrl and 80.2 % ctrl; MTT reduction ([5]; compound 10 µM): 72.55 ± 2.67 % ctrl; MTT reduction ([5]; compound 50 µM): 68.81 ± 0.70 % ctrl and 68.1 % ctrl; MTT reduction ([6]; compound 10 µM): 84.24 ± 5.32 % ctrl; MTT reduction ([6]; compound 50 µM): 81.90 ± 2.81 % ctrl and 81.9 % ctrl
8 | O=C(CCc1cc(O)c(O)c(O)c1)NCCCCCCCCCC[P+](c1ccccc1)(c1ccccc1)c1ccccc1 [Compound 8] | 7.2 | – | – | 800 nM | 5750 nM | –
9 | O=C(Cc1cc(O)c(O)c(O)c1)NCCCCCCCCCC[P+](c1ccccc1)(c1ccccc1)c1ccccc1 [Compound 9] | – | – | – | 530 nM | 3350 nM | fold enhancement of eeAChE inhibitory activity [2]: 3 fold
10 | O=C(/C=C/c1ccc(O)c(O)c1)NCCCCCCCCCC[P+](c1ccccc1)(c1ccccc1)c1ccccc1 [Compound 10] | 23.9 | 150 nM | 3590 nM | – | – | fold enhancement of eeAChE inhibitory activity [2]: 2 fold
11 | O=C(CCc1ccc(O)c(O)c1)NCCCCCCCCCC[P+](c1ccccc1)(c1ccccc1)c1ccccc1 [Compound 11] | 4.9 | 320 nM | 1590 nM | – | – | MTT reduction ([4]; compound 10 µM): 82.87 ± 7.87 % ctrl and 82.9 % ctrl; MTT reduction ([5]; compound 10 µM): 66.43 ± 3.45 % ctrl and 66.4 % ctrl; cytotoxicity [7]: presented cytotoxicity; MTT reduction ([6]; compound 10 µM): 74.97 ± 6.87 % ctrl
12 | O=C(Cc1ccc(O)c(O)c1)NCCCCCCCCCC[P+](c1ccccc1)(c1ccccc1)c1ccccc1 [Compound 12] | 10.2 | – | – | 240 nM | 2440 nM | –
13 | N[C@@H](CCC(=O)O)C(=O)O [Glutamate, L-glutamic acid, reference compound] | – | – | – | – | – | MTT reduction, aggressor alone [6]: 72.68 ± 2.81 % ctrl; MTT reduction, aggressor alone ([6]; listed as glutamate): about 72.7 % ctrl
14 | O=C([O-])CN(CC(=O)[O-])CC(=O)[O-].[Fe+3] [Iron(III), ferric nitrilotriacetate, reference compound] | – | – | – | – | – | MTT reduction, aggressor alone [4]: 63.06 ± 6.25 % ctrl; MTT reduction, aggressor alone ([4]; listed as iron(III)): ~63.1 % ctrl
15 | Aβ-amyloid (1–42) [reference compound] | – | – | – | – | – | MTT reduction, aggressor alone [5]: 58.73 ± 2.76 % ctrl; MTT reduction, aggressor alone ([5]; listed as Aβ42): ~58.7 % ctrl
